The results in this text go back to patent publication US20150166520A1, “AMIDO-SUBSTITUTED PYRIMIDINONE DERIVATIVES USEFUL FOR THE TREATMENT OF HIV INFECTION” (MERCK SHARP & DOHME CORP., priority 2012, published 2015).

The nature of series [1]: Dog pharmacokinetic study, colonic dose. Format: in vivo, Male Beagle Dogs. The arrangement: AUC(0-t) / Tmax: dose or concentration left out as unconfirmed. The settings on record: for colonic absorption versus metabolite Compound 1a: Beagle dogs, colonic dosing, statement in words; for Cmax / AUC(0-t) / Tmax: male, dog, plasma, fasted Beagle dogs, Colonic, compound measured = prodrug dosed; for Cmax / AUC(0-t): mean ± SE; for AUC(0-t): read-out: AUC0-24 hr; for Tmax: median. How it is done: (§1) Six Male Beagle Dogs (Marshall Farms) weighing 9.0-11.6 kg were used for the studies. Studies were conducted under a protocol approved by the WP-IACUC (Animal Procedure Statement #09068544080285). […] Dosing was followed by 5 mL water rinse via oral gavage for oral dosing or with a post-dose water flush of the catheter for colonic dosing. Water was restricted for 1 hour post dose. Food was returned at 4 hours after dosing. Blood (1-mL) was drawn at pre-dose, 0.25, 0.5, 1, 2, 4, 6, 8 and 24 hours post-dosing. The plasma was separated by centrifugation (10 minutes at 2500 g) and kept frozen at −70° C. until analysis by LC-MS/MS.

Series [2] has as its system cryopreserved hepatocytes from rat. Description: Metabolism of compounds in hepatocyte suspensions (prodrug hydrolysis), rat. Format: in vitro ADME. The settings on record: prodrug 1 μM, rat hepatocytes 1×10^6 cells/mL, 37° C. How it is done: (§2) Selected compounds of the present invention (1 μM) were incubated with suspensions of cryopreserved hepatocytes from rat, dog and human subjects at a cell density of 1×10^6 cells/mL. The samples were incubated for 0, 5, 15, 30, 60 and 90 minutes in a 95% humidified incubator at 37° C. with 5% CO2. At each time point, the samples were quenched with acetonitrile containing an appropriate internal standard. The samples were then vortex-mixed and centrifuged at ˜2,900×g for 30 minutes. The supernatants were transferred to clean plates and analyzed using LC-MS/MS. Following quantification of prodrug and parent in the samples, half lives of conversion (t1/2) were determined from the rates of prodrug degradation according to first-order kinetics. Conversion to active metabolite (compound 1a) was confirmed by following the formation of compound 1a.

The nature of series [3]: Oral pharmacokinetics in Wistar-Hanover rats. The class given is in vivo, male Wistar-Hanover rats. The settings on record: plasma, rat; for bioavailability: oral, prodrug, from dose-adjusted IV and P.O. AUC ratios; for Tmax / AUC / Cmax / nAUC: oral gavage, prodrug measured; for AUC: read-out: AUC0-x hr. How it is done: (§3) Selected compounds of the present invention were administered in suitable vehicles to male Wistar-Hanover rats. Intravenous (IV) administration to rats was conducted via cannulas implanted in the jugular vein. For oral administration, test compounds were administered by gavage. Blood samples were serially collected following dose administration for up to 24 hr and plasma was separated by centrifugation. The concentration of test compound in rat plasma were determined by a LC-MS/MS assay following a protein precipitation step and addition of an appropriate internal standard. Quantification was done by determining peak area-ratios of the test compound and compound 1a (the metabolite of each of the test compounds) to the internal standard. Pharmacokinetic parameters were obtained using non-compartmental methods (Watson®). The area under the plasma concentration-time curve (AUC0-t) was calculated from the first time point (0 min) up to the last time point with measurable test compound concentration using the linear trapezoidal or linear/log-linear trapezoidal rule. The IV plasma clearance was calculated by dividing the dose by AUC0-inf. The terminal half-life of elimination was determined by unweighted linear regression analysis of the log-transformed data. The time points for determination of half-life were selected by visual inspection of the data. The volume of distribution at steady state (Vdss) was obtained from the product of plasma clearance and mean residence time (determined by dividing the area under the first moment curve by the area under the curve). The maximum plasma concentration (Cmax) and the time at which maximum concentration occurred (Tmax) were obtained by inspection of the plasma concentration-time data. Absolute oral bioavailability was determined from dose-adjusted IV and P.O. AUC ratios.

In series [4] the test system is cryopreserved hepatocytes from dog. Description: Metabolism of compounds in hepatocyte suspensions (prodrug hydrolysis), dog. The settings on record: prodrug 1 μM, dog hepatocytes 1×10^6 cells/mL, 37° C. The class given is in vitro ADME. How it is done:
as §2

Series [5] can be described thus: Intravenous pharmacokinetics in Wistar-Hanover rats. The settings on record: rat, plasma; for half-life / AUC / Vd / clearance: male, Wistar-Hanover; for half-life / Vd / clearance: prodrug; for AUC / nAUC0-∞: prodrug measured; for AUC: read-out: AUC0-x; for Vd: read-out: Vdss; for clearance: read-out: Clp. Format: in vivo, male Wistar-Hanover rats. How it is done: as §3

A short description of series [6]: Dog pharmacokinetic study, oral dose. Further details: AUC(0-t) / Tmax: dose or concentration left out as unconfirmed. Format: in vivo. The settings on record: male, plasma, fasted Beagle dogs, compound measured = prodrug dosed; for Cmax / AUC(0-t): mean ± SE; for AUC(0-t): read-out: AUC0-24 hr; for Tmax: median. How it is done:
as §1

The subject of series [7] is cryopreserved hepatocytes from human. Description: Metabolism of compounds in hepatocyte suspensions (prodrug hydrolysis), human. Format: in vitro ADME. The settings on record: prodrug 1 μM, human hepatocytes 1×10^6 cells/mL, 37° C. How it is done:
as §2

Setting [8] is: male, Wistar-Hanover, read-out: Cmax.

On to `CCOC(=O)OC(C)Oc1c(C(=O)NCc2ccc(F)cc2)nc(C(C)(C)NC(=O)c2nnc(C)o2)n(C)c1=O` (stereo not shown) [Compound 1], for which, in series [1], the “colonic absorption versus metabolite Compound 1a” value is on record as “significant increase in colonic absorption”, the peak concentration (Cmax) amounted to 91 ± 25 nM, the AUC(0-t) worked out at 0.083 ± 0.034 µM·h and the Tmax was 18 min. Further, in series [2], the “Remaining at 90 min, Rat” value came to 30.30%. In series [3] (male, Wistar-Hanover), the bioavailability worked out at 3%, the time to peak (Tmax) amounted to 15 min and the AUC was 0.002 µM·h. Moreover, in series [3] (setting [8]), the maximum concentration (Cmax) stood at 6 nM. For the same compound, the nAUC in series [3] amounted to 0.0004 µM·h. The “Remaining at 90 min, Dog” value in series [4] came to 15.94%. For the same compound, in series [5], the half-life is 9 min, the AUC amounted to 0.012 µM·h and the “nAUC0-∞” value was 0.012 µM·h. Further, in series [6], the Cmax was 212 ± 32 nM, the AUC(0-t) turned out to be 0.146 ± 0.033 µM·h and the Tmax stood at 18 min. In addition, the “Remaining at 90 min, Human” value in series [7] worked out at 19.32%.

`Cc1nnc(C(=O)NC(C)(C)c2nc(C(=O)NCc3ccc(F)cc3)c(OC(C)OC(=O)OC(C)C)c(=O)n2C)o1` (stereo not shown) [Compound 2]: in series [3] (male, Wistar-Hanover), the bioavailability was 6.6%, the Tmax is 67.8 min and the AUC was determined as 0.039 µM·h. In addition, the Cmax in series [3] (setting [8]) was 19 nM. Besides, the nAUC in series [3] amounted to 0.008 µM·h. In addition, in series [5], the Vd was 2.17 L/kg, the half-life was 10.2 min, the AUC worked out at 0.119 µM·h and the clearance turned out to be 244 mL/min/kg. Also, in series [5], the “nAUC0-∞” value stood at 0.119 µM·h.

For `CCCCOC(=O)OC(C)Oc1c(C(=O)NCc2ccc(F)cc2)nc(C(C)(C)NC(=O)c2nnc(C)o2)n(C)c1=O` (stereo not shown) [Compound 7], the “Remaining at 90 min, Rat” value in series [2] came to 2.72%. Also, in series [4], the “Remaining at 90 min, Dog” value was 3.31%. Also, the “Remaining at 90 min, Human” value in series [7] was 2.12%.

With `Cc1nnc(C(=O)NC(C)(C)c2nc(C(=O)NCc3ccc(F)cc3)c(OC(OC(=O)OC(C)C)C(C)C)c(=O)n2C)o1` (stereo not shown) [Compound 12], the “Remaining at 90 min, Rat” value in series [2] was 38.75%. Also, the “Remaining at 90 min, Dog” value in series [4] stood at 5.97%. For the same compound, the “Remaining at 90 min, Human” value in series [7] is listed as 14.81%.

As for `CCOC(=O)OC(CC)Oc1c(C(=O)NCc2ccc(F)cc2)nc(C(C)(C)NC(=O)c2nnc(C)o2)n(C)c1=O` (stereo not shown) [Compound 15], the “Remaining at 90 min, Rat” value in series [2] is given as 6.20%. Moreover, in series [3] (male, Wistar-Hanover), the bioavailability stood at 7%, the Tmax came to 45 min and the AUC is 0.028 µM·h. Moreover, the Cmax in series [3] (setting [8]) came to 21 nM. The nAUC in series [3] was determined as 0.006 µM·h. Besides, in series [4], the “Remaining at 90 min, Dog” value stood at 8.90%. For the same compound, in series [5], the Vd was 3.48 L/kg, the half-life is 8.4 min, the AUC came to 0.085 µM·h and the clearance came out at 388 mL/min/kg. In series [5], the “nAUC0-∞” value was found to be 0.085 µM·h. Further, the “Remaining at 90 min, Human” value in series [7] amounted to 14.00%.

Turning to `Cc1nnc(C(=O)NC(C)(C)c2nc(C(=O)NCc3ccc(F)cc3)c(OCOC(=O)OC(C)C)c(=O)n2C)o1` [Compound 20], the “Remaining at 90 min, Rat” value in series [2] is on record as 0.60%. In series [4], the “Remaining at 90 min, Dog” value came out at 1.70%. Moreover, in series [7], the “Remaining at 90 min, Human” value is 1.80%.

For `Cc1nnc(C(=O)NC(C)(C)c2nc(C(=O)NCc3ccc(F)cc3)c(OCOC(=O)C(C)(C)C)c(=O)n2C)o1` [Compound 22], in series [1], the “colonic absorption versus metabolite Compound 1a” value is “significant increase in colonic absorption”, the Cmax worked out at 10 ± 3 nM, the AUC(0-t) is 0.014 ± 0.003 µM·h and the Tmax turned out to be 15 min. In addition, the “Remaining at 90 min, Rat” value in series [2] came to 3.58%. The Cmax entry in series [3] is recorded as “BLQ”. Further, the “Remaining at 90 min, Dog” value in series [4] is reported as 3.21%. Further, in series [5], the half-life is 2.4 min, the AUC came out at 0.012 µM·h and the “nAUC0-∞” value stood at 0.012 µM·h. In addition, in series [6], the Cmax came to 8 ± 2 nM, the AUC(0-t) amounted to 0.006 ± 0.002 µM·h and the Tmax is 30 min. For the same compound, the “Remaining at 90 min, Human” value in series [7] is 4.27%.

Take `CC(=O)OC(Oc1c(C(=O)NCc2ccc(F)cc2)nc(C(C)(C)NC(=O)c2nnc(C)o2)n(C)c1=O)C(C)C` (stereo not shown) [Compound 23]: in series [2], the “Remaining at 90 min, Rat” value is 50.65%. For the same compound, the “Remaining at 90 min, Dog” value in series [4] was 8.14%. Also, the “Remaining at 90 min, Human” value in series [7] stood at 28.06%.

As a reminder, the Cmax is the highest concentration seen after dosing. For orientation: Tmax means the time at which the peak concentration occurs. What is called bioavailability is the share of a dose that reaches the circulation, judged against a reference dose that is usually intravenous. The half-life is how long it takes for the measured level to halve.
